ChEMBL document CHEMBL4043136, “Chiral-pool synthesis of 1,2,4-trisubstituted 1,4-diazepanes as novel σ1 receptor ligands” (Bioorg Med Chem, 2017)
Active and inactive are the calls of the source. The rule behind the calls is not given here.

What was measured:
[1] = target: Neuromedin-B receptor (Homo sapiens) (UniProt P28336); test: Displacement of [125I]-(Tyr4)-bombesin from bombesin BB1 receptor (unknown origin) at 1 uM
[2] = target: Sigma non-opioid intracellular receptor 1 (Cavia porcellus, UniProt Q60492); test: Displacement of [3H]-pentazocine from sigma1 receptor in guinea pig brain membranes after 120 mins by liquid scintillation counting; format: cell membranes, Membrane
[3] = target: T1, Sigma intracellular receptor 2 (Rattus norvegicus, UniProt Q5U3Y7); test: Displacement of [3H]-DTG from sigma2 receptor in rat liver membranes after 120 mins by liquid scintillation counting; format: cell membranes, Membrane
T1 sequence (Q5U3Y7 whole entry): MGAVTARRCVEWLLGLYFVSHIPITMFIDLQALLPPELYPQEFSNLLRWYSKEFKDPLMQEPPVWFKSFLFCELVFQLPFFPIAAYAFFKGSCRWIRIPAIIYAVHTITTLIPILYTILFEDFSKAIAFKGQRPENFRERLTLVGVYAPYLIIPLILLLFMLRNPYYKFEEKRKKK

[4] = Metabolic stability in mouse microsomes assessed as amount of parent compound remaining after 5 mins; format: ADME, Microsome; details: read-out: Stability
[5] = Metabolic stability in rat microsomes assessed as amount of parent compound remaining after 5 mins; format: ADME, Microsome; details: read-out: Stability
[6] = Metabolic stability in human microsomes assessed as amount of parent compound remaining after 5 mins; format: ADME, Microsome; details: read-out: Stability
CYP2C19 = CYP2C19 (Homo sapiens, UniProt P33261); test: Inhibition on CYP2C19 (unknown origin) at 1 uM; format: ADME
CYP2D6 = CYP2D6 (Homo sapiens, UniProt P10635); test: Inhibition on CYP2D6 (unknown origin) at 1 uM; format: ADME
CYP3A4 = CYP3A4 (Homo sapiens, UniProt P08684); test: Inhibition on CYP3A4 (unknown origin) at 1 uM; format: ADME
Albumin = Albumin (Homo sapiens, UniProt P02768); test: Binding affinity to human serum albumin at 60 uM; format: ADME; details: isolated protein
[7] = target: Adenosine receptor A1 (Homo sapiens) (UniProt P30542); test: Displacement of [3H]-DPCPX from adenosine A1 receptor (unknown origin) at 1 uM
[8] = target: Alpha-2A adrenergic receptor (Homo sapiens) (UniProt P08913); test: Displacement of [3H]-MK-912 from adrenergic alpha2A receptor (unknown origin) at 1 uM
[9] = target: Beta-1 adrenergic receptor (Homo sapiens) (UniProt P08588); test: Displacement of [125I]-cyanopindolol from adrenergic beta1 receptor (unknown origin) at 1 uM
[10] = target: C-C chemokine receptor type 5 (Homo sapiens) (UniProt P51681); test: Displacement of [125I]-MIP-1beta from CCR5 receptor (unknown origin) at 1 uM
[11] = target: C-X-C chemokine receptor type 2 (Homo sapiens) (UniProt P25025); test: Displacement of [125I]-IL-8 from CXCR2 receptor (unknown origin) at 1 uM
[12] = target: D(2) dopamine receptor (Homo sapiens) (UniProt P14416); test: Displacement of [3H]-sp iperone from dopamine D2 receptor (unknown origin) at 1 uM
Homo sapiens [13] = species on record: Homo sapiens; test: Displacement of [3H]-sp iperone from dopamine D4.2 receptor (unknown origin) at 1 uM
[14] = target: Endothelin-1 receptor (Homo sapiens) (UniProt P25101); test: Displacement of [125I]-endothelin-1 from endothelin ETA receptor (unknown origin) at 1 uM
[15] = target: Estrogen receptor (Homo sapiens) (UniProt P03372); test: Displacement of [3H]-estradiol from estrogen ERalpha receptor (unknown origin) at 1 uM
Homo sapiens [16] = species on record: Homo sapiens; test: Displacement of [3H]-muscimol from […] GABAA receptor (unknown origin) at 1 uM
Homo sapiens [17] = species on record: Homo sapiens; test: Displacement of [3H]-CGP-54626 from […] GABAB receptor (unknown origin) at 1 uM
[18] = target: T2, Glutamate [NMDA] receptor (Homo sapiens) (UniProt Q05586+Q12879+Q13224+O15399+O60391+Q14957+Q8TCU5); test: Displacement of [3H]-MDL-105519 from glutamate NMDA receptor glycine binding site (unknown origin) at 1 uM
[19] = target: T2, Glutamate [NMDA] receptor (Homo sapiens); test: Displacement of [3H]-TCP from glutamate NMDA receptor phencyclidine binding site (unknown origin) at 1 uM
[20] = target: Melanocortin receptor 3 (Homo sapiens) (UniProt P41968); test: Displacement of [125I]-NDP-alpha-MSH from melanocortin MC3 receptor (unknown origin) at 1 uM
[21] = target: Muscarinic acetylcholine receptor M1 (Homo sapiens) (UniProt P11229); test: Displacement of [3H]-N-methylscopolamine from muscarinic M1 receptor (unknown origin) at 1 uM
[22] = target: Muscarinic acetylcholine receptor M2 (Homo sapiens) (UniProt P08172); test: Displacement of [3H]-N-methylscopolamine from muscarinic M2 receptor (unknown origin) at 1 uM
[23] = target: Neuropeptide Y receptor type 1 (Homo sapiens) (UniProt P25929); test: Displacement of [125I]-Peptide YY from neuropeptide Y Y1 receptor (unknown origin) at 1 uM
[24] = target: Delta-type opioid receptor (Homo sapiens) (UniProt P41143); test: Displacement of [3H]-naltrindole from delta opioid receptor (unknown origin) at 1 uM
[25] = target: Kappa-type opioid receptor (Homo sapiens) (UniProt P41145); test: Displacement of [3H]-d iprenorphine from kappa opioid receptor (unknown origin) at 1 uM
[26] = target: Platelet-activating factor receptor (Homo sapiens) (UniProt P25105); test: Displacement of [3H]-PAF from platelet activating factor receptor (unknown origin) at 1 uM
Homo sapiens [27] = species on record: Homo sapiens; test: Displacement of [3H]-alpha-5-methylene-ATP from purinergic P2x receptor (unknown origin) at 1 uM
Homo sapiens [28] = species on record: Homo sapiens; test: Displacement of [35S]-ATP-alpha-S from purinergic P2y receptor (unknown origin) at 1 uM
[29] = target: 5-hydroxytryptamine receptor 1A (Homo sapiens) (UniProt P08908); test: Displacement of [3H]-8-OH-DPAT from 5-HT1A receptor (unknown origin) at 1 uM
[30] = target: Substance-P receptor (Homo sapiens) (UniProt P25103); test: Displacement of [3H]-SR-140333 from tachykinin NK1 receptor (unknown origin) at 1 uM
Mus musculus [31] = test: Toxicity in mouse assessed as increase in abdominal tone at 100 mg/kg, ip by Irwin test; format: organism-based; details: in vivo
[32] = target: Sigma non-opioid intracellular receptor 1 (Cavia porcellus) (UniProt Q60492); test: Agonist activity at sigma1 receptor assessed as potentiation of electrically stimulated contractions of the guinea pig vas deferens at 30 uM relative to (S)-3-PPP
Mus musculus [33] = test: Toxicity in mouse at 1 mg/kg, ip by Irwin test; format: organism-based; details: in vivo
Mus musculus [34] = test: Cognition enhancing effect in mouse assessed as reversal of scopolamine-induced amnesia at 30 mg/kg, ip; format: functional, organism-based
Rattus norvegicus = test: Analgesic activity in rat assessed as inhibition of formalin-induced pain by measuring time spent licking injected paw in late phase (10 to 35 min) administered at 10 mg/kg by two-phase analgesic formalin assay; format: functional, organism-based
Histamine H2 receptor = Histamine H2 receptor (Homo sapiens, UniProt P25021); test: Displacement of [125I]-aminopotentidine receptor from histamine H2 receptor (unknown origin)

Sequence of Substance-P receptor (Homo sapiens) (P25103 whole entry): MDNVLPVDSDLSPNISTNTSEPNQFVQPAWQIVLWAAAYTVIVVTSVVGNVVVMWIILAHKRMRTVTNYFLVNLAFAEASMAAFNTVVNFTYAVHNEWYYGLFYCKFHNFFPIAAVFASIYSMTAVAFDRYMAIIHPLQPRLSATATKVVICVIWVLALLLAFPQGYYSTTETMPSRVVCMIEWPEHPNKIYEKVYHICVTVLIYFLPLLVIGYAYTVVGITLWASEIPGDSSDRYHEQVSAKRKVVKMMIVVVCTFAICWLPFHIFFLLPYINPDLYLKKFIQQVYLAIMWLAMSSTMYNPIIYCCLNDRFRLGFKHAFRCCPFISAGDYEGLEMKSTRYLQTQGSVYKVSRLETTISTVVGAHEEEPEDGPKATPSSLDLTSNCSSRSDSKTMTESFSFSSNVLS
Sequence of Sigma non-opioid intracellular receptor 1 (Q60492 whole entry): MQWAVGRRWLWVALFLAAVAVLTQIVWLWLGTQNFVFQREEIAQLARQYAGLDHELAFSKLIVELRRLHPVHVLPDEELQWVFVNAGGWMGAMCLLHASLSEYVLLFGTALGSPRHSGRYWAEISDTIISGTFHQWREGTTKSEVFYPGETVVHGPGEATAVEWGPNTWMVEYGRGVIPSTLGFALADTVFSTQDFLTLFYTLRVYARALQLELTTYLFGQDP
Sequence of Sigma non-opioid intracellular receptor 1 (Cavia porcellus) (Q60492 whole entry): as above
Sequence of C-X-C chemokine receptor type 2 (Homo sapiens) (P25025 whole entry): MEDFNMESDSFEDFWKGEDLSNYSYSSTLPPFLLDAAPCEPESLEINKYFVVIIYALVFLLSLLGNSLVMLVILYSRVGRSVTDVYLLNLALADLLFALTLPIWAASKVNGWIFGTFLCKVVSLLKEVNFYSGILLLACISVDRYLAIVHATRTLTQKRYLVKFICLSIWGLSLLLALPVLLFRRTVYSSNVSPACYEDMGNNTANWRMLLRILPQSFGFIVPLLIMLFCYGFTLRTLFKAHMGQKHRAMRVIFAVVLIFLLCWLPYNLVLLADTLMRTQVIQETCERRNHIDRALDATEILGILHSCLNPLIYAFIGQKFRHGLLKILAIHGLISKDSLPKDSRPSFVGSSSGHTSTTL
Sequence of Adenosine receptor A1 (Homo sapiens) (P30542 whole entry): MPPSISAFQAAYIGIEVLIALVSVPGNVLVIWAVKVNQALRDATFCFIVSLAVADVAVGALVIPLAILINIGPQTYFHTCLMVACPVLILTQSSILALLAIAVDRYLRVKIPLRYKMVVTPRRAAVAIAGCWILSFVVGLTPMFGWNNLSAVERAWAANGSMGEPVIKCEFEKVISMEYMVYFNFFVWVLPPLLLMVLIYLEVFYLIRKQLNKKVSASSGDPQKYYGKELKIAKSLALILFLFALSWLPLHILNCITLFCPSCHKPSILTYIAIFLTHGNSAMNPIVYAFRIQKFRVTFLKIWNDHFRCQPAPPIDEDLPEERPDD
Sequence of Muscarinic acetylcholine receptor M2 (Homo sapiens) (P08172 whole entry): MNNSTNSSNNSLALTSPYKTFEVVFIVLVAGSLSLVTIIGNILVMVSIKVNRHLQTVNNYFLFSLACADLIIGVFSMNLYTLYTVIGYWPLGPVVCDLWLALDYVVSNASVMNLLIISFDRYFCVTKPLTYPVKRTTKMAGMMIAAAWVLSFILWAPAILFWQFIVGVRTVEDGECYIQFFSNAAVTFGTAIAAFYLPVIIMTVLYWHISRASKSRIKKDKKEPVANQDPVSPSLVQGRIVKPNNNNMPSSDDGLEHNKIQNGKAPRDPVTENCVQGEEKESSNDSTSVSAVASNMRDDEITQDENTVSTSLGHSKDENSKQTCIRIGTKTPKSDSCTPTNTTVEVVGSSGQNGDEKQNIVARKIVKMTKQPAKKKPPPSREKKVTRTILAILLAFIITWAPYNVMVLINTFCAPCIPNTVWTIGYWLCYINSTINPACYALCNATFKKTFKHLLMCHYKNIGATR
Sequence of C-C chemokine receptor type 5 (Homo sapiens) (P51681 whole entry, looked up): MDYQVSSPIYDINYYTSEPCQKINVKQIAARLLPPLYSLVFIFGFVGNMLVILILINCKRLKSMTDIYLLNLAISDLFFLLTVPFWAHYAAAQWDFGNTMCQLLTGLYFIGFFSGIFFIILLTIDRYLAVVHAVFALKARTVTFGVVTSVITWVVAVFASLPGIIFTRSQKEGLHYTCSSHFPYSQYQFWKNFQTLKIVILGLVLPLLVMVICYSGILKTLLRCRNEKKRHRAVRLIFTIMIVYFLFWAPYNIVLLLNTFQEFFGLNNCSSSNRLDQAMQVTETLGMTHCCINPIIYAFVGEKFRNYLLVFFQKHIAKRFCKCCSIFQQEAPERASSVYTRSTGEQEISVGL
Sequence of 5-hydroxytryptamine receptor 1A (Homo sapiens) (P08908 whole entry): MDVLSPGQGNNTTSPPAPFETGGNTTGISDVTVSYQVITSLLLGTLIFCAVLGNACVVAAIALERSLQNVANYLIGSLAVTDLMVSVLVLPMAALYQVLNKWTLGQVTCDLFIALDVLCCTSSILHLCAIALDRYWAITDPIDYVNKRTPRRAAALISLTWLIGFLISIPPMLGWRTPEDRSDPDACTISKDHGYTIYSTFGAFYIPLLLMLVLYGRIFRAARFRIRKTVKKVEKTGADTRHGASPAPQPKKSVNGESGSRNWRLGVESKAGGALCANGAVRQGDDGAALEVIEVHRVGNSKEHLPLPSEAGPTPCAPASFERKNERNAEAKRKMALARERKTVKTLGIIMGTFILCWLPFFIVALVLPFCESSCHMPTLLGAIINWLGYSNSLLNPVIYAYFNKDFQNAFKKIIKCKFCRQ
Sequence of Platelet-activating factor receptor (Homo sapiens) (P25105 whole entry): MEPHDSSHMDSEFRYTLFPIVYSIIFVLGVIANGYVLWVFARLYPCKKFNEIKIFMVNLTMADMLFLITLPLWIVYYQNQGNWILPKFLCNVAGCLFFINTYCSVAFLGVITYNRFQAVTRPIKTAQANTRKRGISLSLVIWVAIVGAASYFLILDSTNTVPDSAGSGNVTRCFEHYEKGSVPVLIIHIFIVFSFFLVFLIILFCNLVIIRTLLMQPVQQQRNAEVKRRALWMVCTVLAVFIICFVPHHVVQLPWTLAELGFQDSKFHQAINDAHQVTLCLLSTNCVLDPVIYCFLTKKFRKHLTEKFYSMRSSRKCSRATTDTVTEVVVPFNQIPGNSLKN
Sequence of Albumin (P02768 whole entry): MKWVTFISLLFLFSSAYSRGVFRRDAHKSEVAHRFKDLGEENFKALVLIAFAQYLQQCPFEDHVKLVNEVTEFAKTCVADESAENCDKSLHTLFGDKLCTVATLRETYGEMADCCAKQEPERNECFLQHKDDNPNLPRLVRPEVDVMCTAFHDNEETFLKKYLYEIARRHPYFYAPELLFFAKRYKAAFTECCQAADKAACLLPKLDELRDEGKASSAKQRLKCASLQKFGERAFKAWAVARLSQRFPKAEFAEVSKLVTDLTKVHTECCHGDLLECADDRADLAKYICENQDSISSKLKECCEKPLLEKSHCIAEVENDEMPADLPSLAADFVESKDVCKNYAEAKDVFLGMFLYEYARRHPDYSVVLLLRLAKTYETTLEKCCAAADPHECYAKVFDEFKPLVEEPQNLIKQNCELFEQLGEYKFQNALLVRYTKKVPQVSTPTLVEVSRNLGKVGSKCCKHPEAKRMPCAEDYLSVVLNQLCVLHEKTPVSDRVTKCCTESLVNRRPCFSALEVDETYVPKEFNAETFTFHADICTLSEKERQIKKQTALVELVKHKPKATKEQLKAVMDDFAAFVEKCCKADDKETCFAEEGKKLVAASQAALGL
Sequence of CYP2D6 (P10635 whole entry): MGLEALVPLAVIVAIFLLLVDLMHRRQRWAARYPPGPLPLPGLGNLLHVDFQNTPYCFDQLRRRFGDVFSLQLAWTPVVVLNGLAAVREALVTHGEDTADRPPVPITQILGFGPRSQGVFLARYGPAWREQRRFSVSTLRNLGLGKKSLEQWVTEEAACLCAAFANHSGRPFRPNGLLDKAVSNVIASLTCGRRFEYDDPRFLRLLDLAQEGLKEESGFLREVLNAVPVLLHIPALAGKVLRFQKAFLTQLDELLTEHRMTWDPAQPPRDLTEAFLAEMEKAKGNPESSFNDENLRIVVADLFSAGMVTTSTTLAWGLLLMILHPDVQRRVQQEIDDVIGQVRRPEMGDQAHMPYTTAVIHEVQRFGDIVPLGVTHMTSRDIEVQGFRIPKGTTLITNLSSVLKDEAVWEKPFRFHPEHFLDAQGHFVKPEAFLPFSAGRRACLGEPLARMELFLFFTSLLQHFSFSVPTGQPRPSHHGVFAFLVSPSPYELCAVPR
Sequence of Muscarinic acetylcholine receptor M1 (Homo sapiens) (P11229 whole entry): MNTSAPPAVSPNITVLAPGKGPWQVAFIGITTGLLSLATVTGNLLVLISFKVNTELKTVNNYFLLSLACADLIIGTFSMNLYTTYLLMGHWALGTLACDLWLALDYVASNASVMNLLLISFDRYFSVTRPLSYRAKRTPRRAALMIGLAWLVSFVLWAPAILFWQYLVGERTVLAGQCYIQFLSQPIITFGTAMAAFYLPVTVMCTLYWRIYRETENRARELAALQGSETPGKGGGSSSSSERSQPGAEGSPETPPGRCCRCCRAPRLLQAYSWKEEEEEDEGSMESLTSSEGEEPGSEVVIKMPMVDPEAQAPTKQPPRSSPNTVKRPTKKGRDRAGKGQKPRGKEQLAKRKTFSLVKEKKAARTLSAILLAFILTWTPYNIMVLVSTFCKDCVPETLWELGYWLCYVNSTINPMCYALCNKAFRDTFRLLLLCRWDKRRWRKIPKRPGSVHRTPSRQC
Sequence of Kappa-type opioid receptor (Homo sapiens) (P41145 whole entry): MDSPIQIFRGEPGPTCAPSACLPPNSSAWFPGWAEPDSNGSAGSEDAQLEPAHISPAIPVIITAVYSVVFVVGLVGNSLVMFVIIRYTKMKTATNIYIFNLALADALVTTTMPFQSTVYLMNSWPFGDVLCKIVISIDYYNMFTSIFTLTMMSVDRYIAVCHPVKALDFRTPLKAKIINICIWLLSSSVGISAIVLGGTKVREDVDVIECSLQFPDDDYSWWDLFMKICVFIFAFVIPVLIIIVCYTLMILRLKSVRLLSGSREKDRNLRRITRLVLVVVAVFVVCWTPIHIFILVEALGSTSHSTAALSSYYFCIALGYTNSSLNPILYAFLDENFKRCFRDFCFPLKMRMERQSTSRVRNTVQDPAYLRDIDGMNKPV

What does the source list for `COc1ccc(CN2CCCN(Cc3ccccc3)[C@@H](C)C2)cc1`?
inhibition [1]: inactive; Ki [2]: 0.00086 µM; Ki [3]: 0.046 µM; remaining at 5 min [4]: < 50%; remaining at 5 min [5]: < 50%; remaining at 5 min [6]: < 50%; inhibition at 1 µM (CYP2C19): 38%; inhibition at 1 µM (CYP2D6): 60%; inhibition at 1 µM (CYP3A4): 7%; PB (Albumin): 1.6%; inhibition [7]: inactive; inhibition [8]: inactive; inhibition [9]: inactive; inhibition [10]: inactive; inhibition [11]: inactive; inhibition [12]: inactive; inhibition (Homo sapiens [13]): inactive; inhibition [14]: inactive; inhibition [15]: inactive; inhibition (Homo sapiens [16]): inactive; inhibition (Homo sapiens [17]): inactive; inhibition [18]: inactive; inhibition [19]: inactive; inhibition [20]: inactive; inhibition [21]: inactive; inhibition [22]: inactive; inhibition [23]: inactive; inhibition [24]: inactive; inhibition [25]: inactive; inhibition [26]: inactive; inhibition (Homo sapiens [27]): inactive; inhibition (Homo sapiens [28]): inactive; inhibition [29]: inactive; inhibition [30]: inactive; Activity (Mus musculus [31]): Toxic; Activity [32]: 29%; Activity (Mus musculus [33]): Non-Toxic; Activity (Mus musculus [34]): Active; Activity (Rattus norvegicus): Active; IC50 (Histamine H2 receptor): 1 µM
